Measurements as given in BindingDB's records for doi:10.1021/bi401077f (Weill Cornell Medical College, 2013).

Legend:
[1] = molecular target: T1, Dihydrolipoyl dehydrogenase (Mycobacterium tuberculosis (strain CDC 1551 / Oshkosh), UniProt P9WHH8); experiment: Enzyme Assays
T1 sequence (P9WHH8 whole entry): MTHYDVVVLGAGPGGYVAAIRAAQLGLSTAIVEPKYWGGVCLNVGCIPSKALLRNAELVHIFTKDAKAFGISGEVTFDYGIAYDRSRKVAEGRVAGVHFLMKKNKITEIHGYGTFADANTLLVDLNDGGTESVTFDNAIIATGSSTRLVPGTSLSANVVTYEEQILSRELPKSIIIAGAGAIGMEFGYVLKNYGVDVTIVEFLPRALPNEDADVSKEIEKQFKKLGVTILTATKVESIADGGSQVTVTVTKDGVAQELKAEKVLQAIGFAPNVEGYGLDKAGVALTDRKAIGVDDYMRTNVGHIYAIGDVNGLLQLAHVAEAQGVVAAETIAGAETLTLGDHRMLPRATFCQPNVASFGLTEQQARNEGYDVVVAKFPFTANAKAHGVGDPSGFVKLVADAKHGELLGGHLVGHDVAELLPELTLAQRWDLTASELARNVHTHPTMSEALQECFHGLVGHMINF

[2] = molecular target: T2, Dihydrolipoyl dehydrogenase (Mycobacterium tuberculosis (strain ATCC 25618 / H37Rv), UniProt P9WHH9); experiment: Enzyme Assays
T2 sequence (P9WHH9 whole entry): T1 sequence (P9WHH8 whole entry)

Structure (SMILES) | IC50 [1] [µM] | Ki [2] [µM] | Ki [1] [µM]
NC(=O)C(=O)NCc1cccnc1 [4031-0653] | 6 | – | –
CC(C)(C)NC(=O)C(=O)NCc1cccnc1 [4031-1995] | 100 | – | –
O=C(Nc1ccc(Br)cc1)C1CCC(S(=O)(=O)c2cccnc2)CC1 (stereo not drawn) [C324-0095] | > 100 | – | –
CCN(Cc1ccccc1)C(=O)CN(C)S(=O)(=O)c1cc(Br)cnc1N [E114-0951] | 12.5 | – | –
CN1CCN(S(=O)(=O)c2cc(Br)cnc2N)CC1 [E138-2099] | > 100 | – | –
CCCCNS(=O)(=O)c1cc(Br)cnc1N [E138-2195] | > 100 | – | –
CN(Cc1ccccc1)C(=O)CN(C)S(=O)(=O)c1cc(Br)cnc1N [E144-0828] | 34 | – | –
CCCCN(C)C(=O)CCNS(=O)(=O)c1cc(Br)cnc1N [E199-0112] | > 100 | – | –
Nc1ncc(Br)cc1S(=O)(=O)NCCC(=O)Nc1cccc(Cl)c1 [K906-3123] | > 100 | – | –
Cc1cc(NC(=O)CN(C)S(=O)(=O)c2cc(Br)cnc2N)ccc1Br [K906-3584] | < 0.1 | – | –
CC1CCCCC1NC(=O)CN(C)S(=O)(=O)c1cccc2cccnc12 (stereo not drawn) [N-(2-methylcyclohexyl)-2-[methyl(quinolin-8-ylsulfonyl)amino]acetamide] | > 100 | – | –
CN(CC(=O)Nc1ccc(F)c(Cl)c1)S(=O)(=O)c1cc(Br)cnc1N [SL418] | – | 0.333 | 0.143
